Measurements reported in patent US7935672B2, “Derivatives of genkwanin and sakuranetin, cosmetic and therapeutic use thereof and preparation method of same” (priority 2004, dated 2011).

How the values were obtained:
leukoblasts = assay: antiblastic effect, activity against cancers and leukemias (method not described)
[1] = side effects on topical, oral or injected administration (method not described); details: administered topically, orally or by injection
human blood cells = assay: human blood cells, proliferation and expression of membrane markers (Tests H); type: cell-based; details: for proliferation of the blood cells of the immune response: 24 or 48 hours at 37° C.
IL-2 = IL-2 content of cell supernatants after PHA or SEB stimulation (Tests H); details: following stimulation with PHA or SEB; FIGS. 2 and 3
lymphoblasts = details: serious immune disorders; FR 2 510 580 A, FR 2 597 751 A, Lin et al. 2001; cited from earlier work

| Compound | activity against certain acute cancers and leukemias (antiblastic effect) and chronic myeloid leukemia (leukoblasts) | harmful side effects [1] | antibody production for the B lymphocytes (human blood cells) | class II MHCs for dendritic cells (human blood cells) | proliferation of the blood cells of the immune response (human blood cells) | IL-2 production (IL-2) | effect on lymphoblasts formed in hyperplasia (lymphoblasts) |
| --- | --- | --- | --- | --- | --- | --- | --- |
| CCOc1ccc(-c2cc(=O)c3c(OC4OC(COC5OC(CO)C(O)C(O)C5O)C(O)C(O)C4O)cc(OC)cc3o2)cc1 [Ex. 8, 5-[O-6-(D-glucopyranosyl)-β-D-glucopyranosyl]oxy-2-(4-ethoxyphenyl)-7-methoxy-4H-1-benzopyran-4-one] | particularly active | virtual absence | – | – | – | – | – |
| CCOc1ccc(C2CC(=O)c3c(cc(OC)cc3OC3OC(COC4OC(CO)C(O)C(O)C4O)C(O)C(O)C3O)O2)cc1 [Ex. 5, 2,3-dihydro-5-[O-6-(D-gluocpyranosyl)-β-D-glucopyranosyl]oxy-2-(4-ethoxyphenyl)-7-methoxy-4H-1-benzopyran-4-one] | – | – | decrease | decrease | do not induce proliferation | inhibition | – |
| COc1cc(OC2OC(COC3OCC(O)C(O)C3O)C(O)C(O)C2O)c2c(=O)cc(-c3ccc(O)cc3)oc2c1 [Ex. 2, 5-O-β-D-primeverosyl-genkwanin] | – | – | decrease | decrease | do not induce proliferation | inhibition | – |
| COc1cc(O[C@@H]2O[C@H](CO[C@@H]3OC[C@@H](O)[C@H](O)[C@H]3O)[C@@H](O)[C@H](O)[C@H]2O)c2c(=O)cc(-c3ccc(O)cc3)oc2c1 [5-O-β-D-primeverosyl-genkwanin] | – | – | – | – | – | – | destroys the lymphoblasts formed |
